# Results taken from patent publication US9302986B2, “Substituted 3-haloallylamine inhibitors of ASSAO and uses thereof” (Boehringer Ingelheim International GmbH, priority 2012, dated 2016).
# Structures can show the parent of a compound that is named as a salt.
# Experiments:
# [1] = target: Endogenous SSAO/VAP-1 in rat fat (Rattus norvegicus (Rat), UniProt O08590); experiment: Inhibition of SSAO/VAP-1 in rat fat homogenate; format: biochemical; settings: benzylamine 30 μM
# Description: Abdominal fat from BALB/c mice, Wistar or Sprague Dawley rats, which are tissues enriched with SSAO/VAP-1-were surgically removed. For every gram of animal abdominal fat tissue, 1 mL of 0.1 M NaPO4 buffer (pH 7.4) was added. Tissues were homogenized using IKA Ultra-Turrax T 10 homogenizer for 3 min, homogenate was centrifuged for 15 min at 3000×g. The middle layer (clear supernatant) was removed without disturbing the top layer (high fat content) or the debris on the bottom of the tube. SSAO/VAP-1 activity was determined by checking the fluorescent signal. Km/Vmax values were determined and the fat homogenate was aliquoted and stored at −80 C until assays were performed.
# Recombinant human MAO-B = Recombinant human MAO-B (Homo sapiens (Human), UniProt P27338); experiment: Inhibition of human recombinant MAO-B; format: biochemical; settings: benzylamine 100 μM
# Description: This vector containing human SSAO/VAP-1 residues was transfected into CHO-K1 glycosylation mutant cell line, Lec 8. A clone stably expressing human SSAO/VAP-1 was isolated and cultured in large scale. Active human SSAO/VAP-1 was purified and recovered using immunoaffinity chromatography. This was used as source for SSAO/VAP-1 activity. A high-throughput colorimetric assay was developed using either 96 or 384 well format. Briefly, in a standard 96 well plate assay 50 μL of purified human SSAO/VAP-1 (0.25 μg/mL) in 0.1 M NaPO4 buffer (pH 7.4) was added into each well.
# The specificity of invention compounds was tested by determining their ability to inhibit MAO-B activities in vitro. Recombinant human MAO-B (0.06 mg/mL; Sigma Aldrich) was used as source of MAO-B enzyme activities.
# Recombinant human DAO = Recombinant human DAO (Homo sapiens (Human), UniProt P19801); experiment: Inhibition of human recombinant diamine oxidase; format: biochemical; settings: putrescine 200 μM
# recombinant human VAP-1 = recombinant human VAP-1 (Homo sapiens, UniProt Q16853); experiment: Inhibition of human recombinant SSAO/VAP-1 expressed in HMEC cells (cell lysate)
# Description: A clone stably expressing human SSAO/VAP-1 was selected and was stored in liquid nitrogen until cell lysate was required for colorimetric assay. Briefly, HMEC cell expressing human SSAO/VAP-1 were grown in several 10 cm petri dishes, once the cells reached 100% confluency, cells were harvested and homogenates were prepared. Cells were washed twice with 5 mL of chilled HES buffer (20 mM HEPES, 1 mM EDTA, 250 mM sucrose, pH 7.4). HES buffer containing 1× protease inhibitor (Sigma Aldrich) and added and cells were incubated on ice for 3 min. Buffer was removed and cells were scraped and transferred to a centrifuge tube. Cell lysates were prepared by passing through 23 G needle for, 10 times and followed by 27 G needle for 10 times. Alternatively the cell lysates were prepared by using IKA Ultra-Turrax T 10 homogenizer for 3 min for every 10 mL of cell suspensions. Cells were then spun for 5 min at 300×g. The clear supernatant was transferred to new centrifuge tube and stored at −80° C. until colorimetric assay was performed. Prior to the assay, 0.5 mM pargyline was added in order to inhibit any residue MAO activities. […] Briefly, 50 μL of cell lysate was incubated with test compounds for 30 min at 37° C.
# [2] = system: LPS-induced neuroinflammation; experiment: Parkinson's disease Model A: systemic exposure to LPS; format: in vivo, Long Evans rats; settings: 2 mg/kg ip
# Description: Parkinson's disease is a pathological, age-related neurodegenerative disorder, characterized by a specific and progressive degeneration of dopaminergic neurons.
# Long Evans rats were dosed intraperitoneal (ip) with 2 mg/kg of Compound 9 or vehicle 1 h before the first (time 0 h) and the third (time 24 h) injections of LPS. At time 0 the animals received a dose of 10 mg/kg of LPS. At time 6 and 24 h the animals were dosed with 3 mg/kg of LPS solution, ip. 30 h after the first LPS injection, the animals received ip injections of lethabarb and were transcardially perfused with 400 ml. PBS at 4° C. followed by 400 ml of 4% paraformaldehyde (PFA). The brains were post fixed overnight in 4% PFA at 4° C. followed by 20% sucrose solution for 24 h. 30 μm sections were collected and stained for immunofluorescence, immunohistochemistry and western blot analysis.
# [3] = system: LPS-induced lung inflammation; experiment: Acute lung inflammation in the LPS driven model; settings: 2 mg/kg
# Description: The incision was closed with wound clips and the mice returned to cages.
# Six hours after LPS/saline injection, the mice were anesthetized, the wound clips removed, the trachea was cannulated with a 23G blunt needle, and the lungs lavaged eight times with 0.5 ml heparinized saline. The lavage was pooled, gently inverted, and a sample retained for white blood cell (WBC) differential analysis. The remainder of the lavage was centrifuged, the supernatants used for cytokine analysis.
# Recombinant human DAO, sequence (P19801 20-751): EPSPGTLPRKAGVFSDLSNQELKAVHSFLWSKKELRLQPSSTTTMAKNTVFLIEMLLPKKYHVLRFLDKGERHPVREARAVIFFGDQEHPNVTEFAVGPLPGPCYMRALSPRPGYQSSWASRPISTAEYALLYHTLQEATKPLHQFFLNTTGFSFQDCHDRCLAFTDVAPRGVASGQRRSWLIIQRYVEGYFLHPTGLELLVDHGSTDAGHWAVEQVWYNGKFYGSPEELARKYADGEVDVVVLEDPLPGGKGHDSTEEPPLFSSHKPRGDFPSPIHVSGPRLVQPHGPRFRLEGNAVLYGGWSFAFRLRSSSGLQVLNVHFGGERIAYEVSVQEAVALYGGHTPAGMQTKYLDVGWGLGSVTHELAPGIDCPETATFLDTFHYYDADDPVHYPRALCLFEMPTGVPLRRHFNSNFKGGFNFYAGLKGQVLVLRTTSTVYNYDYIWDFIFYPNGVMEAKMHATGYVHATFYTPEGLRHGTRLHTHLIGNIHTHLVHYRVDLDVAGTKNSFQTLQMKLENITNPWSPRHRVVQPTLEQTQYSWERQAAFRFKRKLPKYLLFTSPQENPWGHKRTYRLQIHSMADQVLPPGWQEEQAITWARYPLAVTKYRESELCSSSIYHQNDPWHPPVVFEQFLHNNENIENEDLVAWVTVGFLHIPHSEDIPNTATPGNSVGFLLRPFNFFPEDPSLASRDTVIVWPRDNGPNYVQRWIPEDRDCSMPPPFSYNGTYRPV
# Endogenous SSAO/VAP-1 in rat fat, sequence (O08590 whole entry): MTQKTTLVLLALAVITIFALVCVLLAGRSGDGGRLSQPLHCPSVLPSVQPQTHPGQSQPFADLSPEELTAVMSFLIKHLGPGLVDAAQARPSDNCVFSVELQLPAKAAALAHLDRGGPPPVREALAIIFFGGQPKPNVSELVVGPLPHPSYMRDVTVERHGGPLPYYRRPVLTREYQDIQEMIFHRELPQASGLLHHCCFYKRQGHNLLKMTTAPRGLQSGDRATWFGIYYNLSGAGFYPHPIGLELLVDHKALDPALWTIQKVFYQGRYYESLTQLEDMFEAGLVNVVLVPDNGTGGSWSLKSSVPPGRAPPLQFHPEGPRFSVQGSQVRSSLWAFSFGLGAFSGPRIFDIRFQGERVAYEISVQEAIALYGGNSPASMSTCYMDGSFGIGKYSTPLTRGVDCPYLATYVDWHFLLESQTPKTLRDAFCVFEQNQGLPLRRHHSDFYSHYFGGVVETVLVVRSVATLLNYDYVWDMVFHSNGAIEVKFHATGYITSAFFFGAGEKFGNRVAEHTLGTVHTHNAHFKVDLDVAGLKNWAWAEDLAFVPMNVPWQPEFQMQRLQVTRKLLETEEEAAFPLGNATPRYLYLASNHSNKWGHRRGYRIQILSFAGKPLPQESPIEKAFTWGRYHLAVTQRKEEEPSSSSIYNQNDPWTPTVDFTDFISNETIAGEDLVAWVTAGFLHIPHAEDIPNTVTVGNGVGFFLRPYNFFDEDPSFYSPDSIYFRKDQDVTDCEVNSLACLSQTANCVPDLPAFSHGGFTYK
# Recombinant human MAO-B, sequence (P27338 whole entry): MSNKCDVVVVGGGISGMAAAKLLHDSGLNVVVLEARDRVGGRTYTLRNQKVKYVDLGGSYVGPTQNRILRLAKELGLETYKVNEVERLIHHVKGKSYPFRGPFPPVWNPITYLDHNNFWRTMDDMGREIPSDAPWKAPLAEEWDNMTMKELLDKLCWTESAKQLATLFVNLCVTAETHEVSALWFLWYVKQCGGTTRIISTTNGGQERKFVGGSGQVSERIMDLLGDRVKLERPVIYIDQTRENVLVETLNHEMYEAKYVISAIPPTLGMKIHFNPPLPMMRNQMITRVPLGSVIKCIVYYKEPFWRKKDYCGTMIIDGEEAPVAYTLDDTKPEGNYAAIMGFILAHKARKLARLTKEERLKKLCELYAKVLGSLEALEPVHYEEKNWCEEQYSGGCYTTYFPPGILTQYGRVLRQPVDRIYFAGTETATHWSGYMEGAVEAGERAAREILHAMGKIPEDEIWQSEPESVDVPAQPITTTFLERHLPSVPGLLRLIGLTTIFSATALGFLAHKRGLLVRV
Compound,IC50 [1] [µM],IC50 (Recombinant human MAO-B) [µM],IC50 (Recombinant human DAO) [µM],IC50 (recombinant human VAP-1) [µM],neutrophil infiltration in the dorso-lateral striatum and hippocampus ([2]; 30 h after first LPS injection),"microglial cell recruitment and activation in the substantia nigra and dorso-lateral striatum ([2]; dendrites length, surface and volume)",IL-6 levels ([3]; lavage supernatant),TNF-α levels ([3]; lavage supernatant),neutrophil infiltration ([3]; lung lavage six hours after LPS)
"CCN(CC)C(=O)c1ccc(OC/C(=C/F)CN)cc1 [Compound 24, (E)-4-(2-(Aminomethyl)-3-fluoroallyloxy)-N,N-diethylbenzamide]",< 0.1,> 1,> 10,,,,,,
"Cc1cc(OC/C(=C\F)CN)ccc1C(=O)N(C)C [Compound 26, (Z)-4-(2-(Aminomethyl)-3-fluoroallyloxy)-N,N,2-trimethylbenzamide]",,> 1,< 1,< 0.1,,,,,
"CN(C)S(=O)(=O)c1cccc(OC/C(=C\F)CN)c1 [Compound 15, (Z)-3-(2-(Aminomethyl)-3-fluoroallyloxy)-N,N-dimethylbenzenesulfonamide]",< 0.1,> 100,,,,,,,
"COc1cc(C(=O)N(C)C)ccc1OCC(=CF)CN [Compound 7, 4-(2-(Aminomethyl)-3-fluoroallyloxy)-3-methoxy-N,N-dimethylbenzamide]",,> 10,< 1,< 0.1,,,,,
"CC(C)NS(=O)(=O)c1ccc(OC/C(=C\F)CN)cc1 [Compound 33, (Z)-4-(2-(Aminomethyl)-3-fluoroallyloxy)-N-isopropylbenzenesulfonamide]",< 0.1,> 10,< 1,,,,,,
"CN(C)S(=O)(=O)c1ccc(OC/C(=C\F)CN)cc1 [Compound 10, (Z)-4-(2-(Aminomethyl)-3-fluoroallyloxy)-N,N-dimethylbenzenesulfonamide]",< 0.1,> 10,> 1,,,,,,
"CN(C)C(=O)c1ccc(OC/C(=C\F)CN)c(Cl)c1 [Compound 6, (Z)-4-(2-(Aminomethyl)-3-fluoroallyloxy)-3-chloro-N,N-dimethylbenzamide]",,> 1,< 1,,,,,,
"CNC(=O)c1ccc(OC/C(=C/F)CN)cc1 [Compound 25, (E)-4-(2-(Aminomethyl)-3-fluoroallyloxy)-N-methylbenzamide]",< 0.1,> 1,< 1,< 0.1,,,,,
"NC/C(=C/F)CCc1ccc(F)cc1 [Mofegiline, reference compound]",0.006,,,,,,,,
"CN(C)C(=O)c1ccc(OC/C(=C/F)CN)cc1 [Compound 13, hydrochloride]",< 0.1,> 0.1,> 1,< 0.1,,,,,
"CN(C)S(=O)(=O)c1ccc(OC/C(=C/F)CN)cc1 [Compound 14, (E)-4-(2-(Aminomethyl)-3-fluoroallyloxy)-N,N-dimethylbenzenesulfonamide]",< 0.1,> 10,> 10,,,,,,
"CN(C)C(=O)c1ccc(OC/C(=C\F)CN)c(Br)c1 [Compound 20, (Z)-4-(2-(Aminomethyl)-3-fluoroallyloxy)-3-bromo-N,N-dimethylbenzamide]",,> 1,< 1,,,,,,
"NC/C(=C/F)COc1ccc(C(N)=O)cc1 [Compound 2, (Z)-4-(2-(Aminomethyl)-3-fluoroallyloxy)benzamide]",< 0.1,> 1,< 0.1,< 0.1,,,,,
"NC/C(=C/F)COc1ccc(S(N)(=O)=O)cc1 [Compound 9, (Z)-4-(2-(Aminomethyl)-3-fluoroallyloxy)benzenesulfonamide]",< 0.1,> 10,< 1,< 0.1,reduced,reduction,diminution,diminution,significant reduction
"CCNS(=O)(=O)c1ccc(OC/C(=C\F)CN)cc1 [Compound 31, (Z)-4-(2-(Aminomethyl)-3-fluoroallyloxy)-N-ethylbenzenesulfonamide]",< 0.1,> 1,< 1,,,,,,
"CN(C)C(=O)c1ccc(SCC(=CF)CN)cc1 [Compound 8, 4-(2-(Aminomethyl)-3-fluoroallylthio)-N,N-dimethylbenzamide]",,> 1,,< 0.1,,,,,
"CNS(=O)(=O)c1ccc(OC/C(=C\F)CN)cc1 [Compound 29, (Z)-4-(2-(Aminomethyl)-3-fluoroallyloxy)-N-methylbenzenesulfonamide]",< 0.1,> 10,> 1,,,,,,
"NC/C(=C\F)COc1ccc(C(N)=O)cc1 [Compound 3, (E)-4-(2-(Aminomethyl)-3-fluoroallyloxy)benzamide]",< 0.1,> 10,> 1,< 0.1,,,,,
"CN(C)C(=O)c1ccc(OC/C(=C\F)CN)c(F)c1 [Compound 4, (Z)-4-(2-(Aminomethyl)-3-fluoroallyloxy)-3-fluoro-N,N-dimethylbenzamide]",< 0.1,> 0.1,< 1,,,,,,
"NC/C(=C\F)COc1ccc(S(N)(=O)=O)cc1 [Compound 11, (E)-4-(2-(Aminomethyl)-3-fluoroallyloxy)benzenesulfonamide]",< 0.1,> 10,> 10,< 0.1,,,,,
"CC(C)NS(=O)(=O)c1ccc(OC/C(=C/F)CN)cc1 [Compound 32, (E)-4-(2-(Aminomethyl)-3-fluoroallyloxy)-N-isopropylbenzenesulfonamide]",< 0.1,> 10,> 10,,,,,,
"CCNS(=O)(=O)c1ccc(OC/C(=C/F)CN)cc1 [Compound 30, (E)-4-(2-(Aminomethyl)-3-fluoroallyloxy)-N-ethylbenzenesulfonamide]",< 0.1,> 10,> 10,,,,,,
"CN(C)C(=O)c1ccc(OC/C(=C\F)CN)cc1 [Compound 18, (Z)-4-(2-(Aminomethyl)-3-fluoroallyloxy)-N,N-dimethylbenzamide]",< 0.1,> 0.1,< 0.1,< 0.1,,,,,
"CNS(=O)(=O)c1ccc(OC/C(=C/F)CN)cc1 [Compound 28, (E)-4-(2-(Aminomethyl)-3-fluoroallyloxy)-N-methylbenzenesulfonamide]",< 0.1,> 10,> 10,,,,,,
